The source of these data is patent US20200038399A1, “FORMULATIONS, METHODS, KIT, AND DOSAGE FORMS FOR TREATING BACTERIAL INFECTION” (Motif BioSciences Inc., priority 2016, published 2020).

Like-named read-outs stand apart in the source and are kept apart here.

For test [1], the system named is S. aureus 101. The test is described as follows: MIC determination. Type of test: cell-based, Staphylococcus aureus. How it is done: (§1) Minimum inhibitory concentration (MIC) determination.
(§2) In order to choose the appropriate concentrations to be tested in the checkerboard experiments, minimum inhibitory concentrations (MICs) were determined first. […] Table 6) in microtiter plates. Stock solutions (10 mg/ml) of reference antibiotics were prepared in DMSO (except for tobramycin, gentamicin, lomefloxacin, tetracycline) and stored at 4° C. The bacteria were grown in Mueller-Hinton Broth (BBL Mueller-Hinton Broth II, cation adjusted). S. pneumoniae was grown in Mueller-Hinton Broth supplemented with 5% (v/v) lysed sheep blood. For the growth of H. influenzae HTM (Haemophilus test medium) was used containing Mueller-Hinton broth, yeast extract ([…], Difco) and supplemented with NAD and hematin (HTM Supplement, Oxoid SR0158E). M. catarrhalis was grown in Brain Heart Infusion medium (Oxoid). The bacteria were incubated for 18 hours at 37° C. in ambient air except for S. pneumoniae, H. influenzae and M. catarrhalis, which were incubated in the presence of 5% CO2. The MIC was determined as the lowest concentration of an individual drug that lead to no visible growth.

The test system of test [2] is S. pneumoniae 1/1. The test is described as follows: MIC determination. Type of test: cell-based, Streptococcus pneumoniae. The conditions noted are these: Streptococcus pneumoniae, read-out: Minimum inhibitory concentrations (MIC). How it is done:
as §1, §2

For test [3], the system named is Haemophilus influenzae ATCC 49766. The test can be described thus: MIC determination. The note with it: Haemophilus influenzae, read-out: Minimum inhibitory concentrations (MIC). Type of test: cell-based. The method, then:
as §1, §2

The subject of test [4] is Klebsiella pneumoniae ATCC 33495. The test is described as follows: MIC determination. Type of test: cell-based. The note with it: Klebsiella pneumoniae, read-out: Minimum inhibitory concentrations (MIC). How it is done: as §1, §2
Test [5] concerns Moraxella catarrhalis RA 21. The test can be described thus: MIC determination. The conditions noted are these: Moraxella catarrhalis, read-out: Minimum inhibitory concentrations (MIC). The test is classed as cell-based. How it is done: as §1, §2
Test [6] relates to Staphylococcus aureus ATCC 25923. The test is described as follows: MIC determination. Type of test: cell-based. The conditions noted are these: Staphylococcus aureus, read-out: Minimum inhibitory concentrations (MIC). The method, then:
as §1, §2

Test [7] has as its system Streptococcus pneumoniae ATCC 49619. The test is described as follows: MIC determination. Type of test: cell-based. The note with it: Streptococcus pneumoniae, read-out: Minimum inhibitory concentrations (MIC). How it is done: as §1, §2
Test [8] relates to Haemophilus influenzae ATCC 49766. The test is described as follows: checkerboard synergy assay with iclaprim. The test is classed as cell-based. The note with it: antibiotic in combination with iclaprim; H. influenzae 49766. How it is done:
(§3) The synergistic potential of iclaprim against Gram-positive and Gram-negative bacteria was determined using the checkerboard assay as described in Eliopoulos GM and Moellering, Jr. RC (1991), Antimicrobial combinations, pp. 432-492, in V. Lorian (ed.), Antibiotics in laboratory medicine, 3rd Ed., The Williams & Wilkins Co., Baltimore, the entire disclosure of which is herein incorporated by reference, allowing multiple test concentrations of iclaprim to be assayed in the presence of various concentrations of the other antibiotic in microtiter plates. The same growth media and conditions were used as described in 3.2 below.
(§4) Two different dilutions were used for iclaprim depending on the MIC determined for the bacterium. […] Iclaprim and the other antibiotic being tested were also dispensed alone in the last row and in the last column, respectively, as controls.
(§5) The Fractional Inhibitory Concentrations (FIC) for each added agent were calculated and used to determine the sum of FIC (ΣFIC) indicative of the synergistic potential of a given combination as described in Veyssier P. (1999), Inhibiteurs de la dihydrofolate reductase, nitrohétérocycles (furanes) et 8-hydroxyquinoleines, pp. 995-1027, in A. Bryskier (ed.), Antibiotiques agents antibatériens et antifongiques, 1st Ed., Ellipses Edition Marketing SA, Paris, the entire disclosure of which is herein incorporated by reference. Synergy was defined whereby the ΣFIC was <0.5, indifference (no synergy nor antagonism) whereby ΣFIC was ≥0.5 but ≤4, and antagonism whereby ΣFIC was >4. Additivity as a special form of indifference was defined whereby the ΣFIC was ≥0.5 but <1, for example as described in Stevens, D L et al. (1998), In vitro antimicrobial effects of various combinations of penicillin and clindamycin against four strains of Streptococcus pyogenes, J. Antimicrob. Chemother. 42: 1266-1268, the entire disclosure of which is herein incorporated by reference.

The test system of test [9] is Klebsiella pneumoniae ATCC 33495. The test is described as follows: checkerboard synergy assay with iclaprim. Type of test: cell-based. The note with it: antibiotic in combination with iclaprim; K. pneumoniae 33495. How it is done:
as §3, §4, §5

The subject of test [10] is Moraxella catarrhalis RA 21. The test can be described thus: checkerboard synergy assay with iclaprim. Type of test: cell-based. The conditions noted are these: antibiotic in combination with iclaprim; M. catarrhalis RA 21. How it is done: as §3, §4, §5
In test [11] the test system is Staphylococcus aureus ATCC 25923. The test can be described thus: checkerboard synergy assay with iclaprim. The note with it: antibiotic in combination with iclaprim; S. aureus 25923. The test is classed as cell-based. The method, then:
as §3, §4, §5

Test [12] has as its system Streptococcus pneumoniae ATCC 49619. The test can be described thus: checkerboard synergy assay with iclaprim. The test is classed as cell-based. The conditions noted are these: antibiotic in combination with iclaprim; S. pneumoniae 49619. The method, then:
as §3, §4, §5

Test [13] deals with S. aureus 101. The test can be described thus: checkerboard synergy assay with iclaprim. Type of test: cell-based, Staphylococcus aureus. The note with it: antibiotic in combination with iclaprim. How it is done: as §3, §4, §5
Test [14] relates to S. pneumoniae 1/1. The test is described as follows: checkerboard synergy assay with iclaprim. The conditions noted are these: antibiotic in combination with iclaprim. Type of test: cell-based, Streptococcus pneumoniae. The method, then: as §3, §4, §5
Where [15] appears, read: Staphylococcus aureus, 101, 18 h, read-out: Minimum inhibitory concentrations (MIC).

For the compound `CN[C@H](CC(C)C)C(=O)N[C@H]1C(=O)N[C@@H](CC(N)=O)C(=O)N[C@H]2C(=O)N[C@H]3C(=O)N[C@H](C(=O)N[C@H](C(=O)O)c4cc(O)cc(O)c4-c4cc3ccc4O)[C@H](O)c3ccc(c(Cl)c3)Oc3cc2cc(c3O[C@@H]2O[C@H](CO)[C@@H](O)[C@H](O)[C@H]2O[C@H]2C[C@](C)(N)[C@H](O)[C@H](C)O2)Oc2ccc(cc2Cl)[C@H]1O` [Vancomycin], the MIC in test [1] (setting [15]) was 2 µg/mL; in test [2] (1/1, 18 h) it was 0.5 µg/mL; in test [3] (ATCC49766, 18 h) it was 128 µg/mL; in test [4] (ATCC33495, 18 h), more than 128 µg/mL; in test [5] (RA21, 18 h), more than 128 µg/mL; in test [6] (ATCC25923, 18 h), 2 µg/mL. The MIC in test [7] (ATCC49619, 18 h) was found to be 0.5 µg/mL. Besides, the “Con (Conclusion)” value is recorded as “Ind (Indifference (Ind))” in test [8], “Ind (Indifference (Ind))” in [9] and “Ad (Additivity (Ad))” in test [10]. The “Σ FIC” value in [8] was 1.00-1.25; in test [9] it was 1.01-1.50; in test [10] it was 0.75-1.13; in test [11] it was 1.03-1.50; in test [12], 1.00-1.25; in test [13], 0.75-1.25. In addition, the “Σ FIC” value in test [14] was 0.56-1.03.

Regarding `NC[C@H]1O[C@H](O[C@H]2[C@H](O)[C@@H](O[C@H]3O[C@H](CO)[C@@H](O)[C@H](N)[C@H]3O)[C@H](N)C[C@@H]2N)[C@H](O)[C@@H](O)[C@@H]1O` [Kanamycin], the MIC in [1] (Staphylococcus aureus, 101, 18 h; read-out: Minimum inhibitory concentrations (MIC)) is more than 128 µg/mL; in test [2] (S. pneumoniae 1/1, 18 hours at 37° C., 5% CO2) it was 128 µg/mL; in [3] (ATCC49766, H. Influenza 49766, 18 hours at 37° C., 5% CO2), 2 µg/mL; in test [4] (ATCC33495, K. pneumonia 33495, 18 hours at 37° C.) it was 4 µg/mL; in test [5] (RA21, M. catarrhalis RA 21, 18 hours at 37° C., 5% CO2), 4 µg/mL; in [6] (ATCC25923, S. aureus 25923, 18 hours at 37° C.) it was 2 µg/mL. The MIC in [7] (ATCC49619, S. pneumoniae 49619, 18 hours at 37° C., 5% CO2) came out at 32 µg/mL. The “Con (Conclusion)” value in [8] is recorded as “Ind (Indifference (Ind))”; in [9], “Ad (Additivity (Ad))”; in test [10] it was “Ind (Indifference (Ind))”. The “Σ FIC” value in test [8] was 1.02-1.13; in test [9] it was 0.63-0.75; in [10] it was 1.00-1.25; in test [11], 1.06-1.50; in test [12] it was 1.00-1.25; in test [13] it was 1.01-1.50. Moreover, the “Σ FIC” value in [14] is recorded as 1.02-1.50.

As for `C=C(NC(=O)C(=C)NC(=O)c1csc(C2=N[C@@H]3c4csc(n4)[C@H]4NC(=O)c5csc(n5)[C@H]([C@](C)(O)[C@@H](C)O)NC(=O)[C@H]5CSC(=N5)/C(=C/C)NC(=O)[C@H]([C@@H](C)O)NC(=O)c5csc(n5)[C@]3(CC2)NC(=O)[C@H](C)NC(=O)C(=C)NC(=O)[C@H](C)NC(=O)[C@H]([C@@H](C)CC)N[C@@H]2C=Cc3c([C@H](C)O)cc(nc3[C@H]2O)C(=O)O[C@@H]4C)n1)C(N)=O` [Thiostrepton], the MIC in test [1] (setting [15]) is 0.5 µg/mL; in [2] (1/1, 18 h), 0.063 µg/mL; in test [3] (ATCC49766, 18 h) it was 32 µg/mL; in test [4] (ATCC33495, 18 h) it was more than 128 µg/mL; in test [5] (RA21, 18 h), 0.5 µg/mL; in [6] (ATCC25923, 18 h), 0.5 µg/mL. For the same compound, the MIC in [7] (ATCC49619, 18 h) came out at 0.063 µg/mL. Besides, the “Con (Conclusion)” value in test [8], in test [9] and in test [10] was “Ind (Indifference (Ind))” in each case. Also, the “Σ FIC” value was 1.02-1.50 in test [8]; 1.01-1.50 in test [9]; 1.02-1.50 in test [10]; 1.02-1.50 in test [11]; 1.12-1.50 in test [12]; 1.50-2.25 in test [13]. Moreover, in [14], the “Σ FIC” value was 1.12-1.50.
